How the values were obtained:
[1] = tested on: c-kit; experiment: FACS-based c-kit degradation assay in Kasumi-1 cells; type: cell-based; details: about 18 h
Description: Leukemia cell line, Kasumi-1, was used for testing c-kit degradation induced by Hsp90 inhibitors of the invention. The cells (3×10^5 per well) were treated with 17AAG (0.5 μM) or Compound 11 (0.05 μM or 0.5 μM) for about 18 h. The cells were collected and centrifuged (SORVALL RT 6000D) at 1200 rpm for 5 min. The supernatants were discarded, and the cells were washed one time with 1×PBS. After centrifugation the cells were stained with FITC conjugated c-kit antibody (MBL International, Cat# K0105-4) in […] 1×PBS at 4° C. for 1 h. The samples were read and analyzed with FACSCalibur flow cytometer (Becton Dicknson).

[2] = tested on: c-kit; experiment: Western blot analysis of c-Kit in Kasumi-1 cells; type: cell-based
Description: The results of the FACS analysis were confirmed with Western blot analysis (see FIG. 2). […] In contrast, 17-AAG had no effect of c-Kit protein levels at either 100 nM or 400 nM.

[3] = tested on: Her2; experiment: Degradation of Her2 in BT-474 cells (Method 1, Western blot); type: cell-based, human; details: 0.5 μM, overnight
Description: Human high-Her2 breast carcinoma BT474 (HTB-20), SK-BR-3 (HTB-30) and MCF-7 breast carcinoma (HTB-22) from American Type Culture Collection, VA, USA were grown in Dulbecco's modified Eagle's medium with 4 mM L-glutamine and antibiotics (100 IU/ml penicillin and 100 ug/ml streptomycine; GibcoBRL). To obtain exponential cell growth, cells were trypsinized, counted and seeded at a cell density of 0.5×10^6 cells /ml regularly, every 3 days. All experiments were performed on day 1 after cell passage.
BT-474 cells are treated with 0.5 μM, 2 μM, or 5 μM of 17AAG (a positive control) or 0.5 μM, 2 μAM, or 5 μM of a compound of the invention overnight in DMEM medium. After treatment, each cytoplasmic sample is prepared from 1×10^6 cells by incubation of cell lysis buffer (#9803, cell Signaling Technology) on ice for 10 minutes. The resulting supernatant used as the cytosol fractions is dissolved with sample buffer for SDS-PAGE and run on a SDS-PAGE gel, blotted onto a nitrocellulose membrane by using semi-dry transfer. Non-specific binding to nitrocellulose is blocked with 5% skim milk in TBS with 0.5% Tween at room temperature for 1 hour, then probed with anti-Her2/ErB2 mAb (rabbit IgG, #2242, Cell Signaling) and anti-Tubulin (T9026, Sigmna) as housekeeping control protein. […]

Row | Compound | c-kit degradation (FACS) ([1]; 0.05 μM) | c-kit degradation (FACS) ([1]; 0.5 μM) | Degradation of c-Kit (Western blot) ([2]; 100 nM) | Degradation of c-Kit (Western blot) ([2]; 400 nM) | Degradation of Her2 [3]
1 | CCCN(C)c1cc(-n2c(S)nnc2-c2cc(C(C)C)c(O)cc2O)ccc1OC [Compound 11, 4-(4-(3-(N-methyl-N-propylamino)-4-methoxyphenyl)-5-mercapto-4H-1,2,4-triazol-3-yl)-6-isopropylbenzene-1,3-diol] | induced c-kit degradation | induced c-kit degradation | induced the degradation of c-Kit | induced the degradation of c-Kit | 
2 | CCN(C)c1cc(-n2c(S)nnc2-c2cc(C(C)C)c(O)cc2O)ccc1OC [Compound 12, 4-(4-(3-(N-methyl-N-ethylamino)-4-methoxy-phenyl)-5-mercapto-4H-1,2,4-triazol-3-yl)-6-isopropylbenzene-1,3-diol] |  |  | induced the degradation of c-Kit | induced the degradation of c-Kit | 
3 | C=CCNC1=C2C[C@@H](C)C[C@H](OC)[C@H](O)[C@@H](C)/C=C(\C)[C@H](OC(N)=O)[C@@H](OC)/C=C\C=C(/C)C(=O)NC(=CC1=O)C2=O [Compound 17AAG, reference compound] |  | could not induce c-kit degradation | no effect | no effect | partial degradation of Her2
